Reference: patent US20060069132A1, “Azolecarboxamide herbicides” (priority 2004, published 2006)

Columns and labels:
ducksalad = test: Test B flooded paddy test; format: in vivo, Heteranthera limosa; conditions: 1000 g ai/ha, visual rating, scale 0 to 100 (0 no effect, 100 complete control), 13 to 15 days
Summary of the method: (§1)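 Paddy species grown to the 2-leaf stage under flooding; blackgrass sprayed postemergence at 2–18 cm (1- to 4-leaf stage). Plants kept in a greenhouse for 13 to 15 days, then visually rated against controls on 0 (no effect) to 100 (complete control).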

giant foxtail = test: Test B pre-/postemergence herbicide test; format: in vivo, Setaria faberi
Summary of the method: (§2)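 Evaluation is visual, comparing treated with control plants on a scale where 0 means no effect and 100 means full control. Treatments were preemergence, or postemergence on seedlings 2–18 cm tall, and held 13–15 days in the greenhouse.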

morningglory = test: Test B pre-/postemergence herbicide test; format: in vivo, Ipomoea coccinea; conditions: for Morningglory plant response rating: postemergence, visual rating
Summary of the method: (§3)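 Test chemicals in a non-phytotoxic solvent mixture with surfactant were applied preemergence to seeded species and postemergence to plants 2-18 cm tall (1- to 4-leaf stage); rice and barnyardgrass were also tested in a flooded paddy at the 2-leaf stage. Visual rating versus controls after 13-15 days in greenhouse, scale 0 (no effect) to 100 (complete control).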

wheat = test: Test B postemergence herbicide test; format: in vivo, Triticum aestivum; set-up: key to Wheat plant response rating: 0 = no effect, 100 = complete control; conditions: scale 0 (no effect) to 100 (complete control); for Plant response rating, Wheat: Postemergence, 500 g ai/ha, visual rating after 13 to 15 days; for Wheat plant response rating: postemergence, 125 g ai/ha, visual rating
Summary of the method: (§4)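 Scale 0–100: zero equals no visible effect, 100 complete control, judged by eye relative to controls. Timing: 13 to 15 days in greenhouse post-treatment. Growth stage at spraying: two leaves (paddy) or one to four leaves, 2–18 cm (postemergence).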

pigweed = test: Test B pre-/postemergence herbicide test; format: in vivo, Amaranthus retroflexus; conditions: for Pigweed plant response rating: postemergence, visual rating
Summary of the method: as §2

corn = test: Test B pre-/postemergence herbicide test; format: in vivo, Zea mays
Summary of the method: as §2

cocklebur = test: Test B pre-/postemergence herbicide test; format: in vivo, Xanthium strumarium; conditions: for Cocklebur plant response rating: postemergence, visual rating
Summary of the method: as §3

rice [1] = test: Test B flooded paddy test; format: in vivo, Oryza sativa; conditions: 1000 g ai/ha, visual rating, scale 0 to 100 (0 no effect, 100 complete control), 13 to 15 days
Summary of the method: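 Each value is a visual 0–100 response rating taken against controls 13 to 15 days after treatment in the greenhouse. Plants received formulated chemical postemergence at the 1- to 4-leaf stage or, in flooded paddy, at the 2-leaf stage.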

blackgrass = test: Test B postemergence herbicide test; format: in vivo, Alopecurus myosuroides; conditions: scale 0 (no effect) to 100 (complete control); for Plant response rating, Blackgrass: Postemergence, 500 g ai/ha, visual rating after 13 to 15 days; for Blackgrass plant response rating: postemergence, 125 g ai/ha, visual rating
Summary of the method: as §1

large crabgrass = test: Test B pre-/postemergence herbicide test; format: in vivo, Digitaria sanguinalis
Summary of the method: as §2

[2] = test system: small flower umbrella sedge; test: Test B flooded paddy test; format: in vivo, Cyperus difformis; conditions: 1000 g ai/ha, visual rating, scale 0 to 100 (0 no effect, 100 complete control), 13 to 15 days
Summary of the method: as §1

Surinam grass = test: Test B pre-/postemergence herbicide test; format: in vivo, Urochloa decumbens; conditions: for Surinam Grass plant response rating: postemergence, visual rating
Summary of the method: as §2

lambsquarters = test: Test B pre-/postemergence herbicide test; format: in vivo, Chenopodium album; conditions: for Lambsquarters plant response rating: postemergence, visual rating
Summary of the method: as §2

velvetleaf = test: Test B pre-/postemergence herbicide test; format: in vivo, Abutilon theophrasti; conditions: for Velvetleaf plant response rating: postemergence, visual rating
Summary of the method: as §2

wild oat = test: Test B postemergence herbicide test; format: in vivo, Avena fatua; conditions: scale 0 (no effect) to 100 (complete control); for Plant response rating, Oat, Wild: Postemergence, 500 g ai/ha, visual rating after 13 to 15 days; for Oat, Wild plant response rating: postemergence, 125 g ai/ha, visual rating
Summary of the method: as §4

barnyardgrass [3] = test: Test B pre-/postemergence herbicide test; format: in vivo, Echinochloa crus-galli
Summary of the method: as §3

rice [4] = test: Test B pre-/postemergence herbicide test; format: in vivo, Oryza sativa; conditions: preemergence
Summary of the method: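 Plants compared with untreated controls 13–15 days post-treatment and given a visual 0–100 injury score. Applications: preemergence to seeds; postemergence at 1- to 4-leaf (2–18 cm); paddy species flooded, 2-leaf stage. Vehicle non-phytotoxic, surfactant included.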

barnyardgrass [5] = test: Test B flooded paddy test; format: in vivo, Echinochloa crus-galli; conditions: 1000 g ai/ha, visual rating, scale 0 to 100 (0 no effect, 100 complete control), 13 to 15 days
Summary of the method: as §1

[6] = 500 g ai/ha, visual rating 0-100, 0 no effect, 100 complete control, preemergence
[7] = Postemergence, 500 g ai/ha, visual rating after 13 to 15 days, scale 0 (no effect) to 100 (complete control)
[8] = postemergence, 125 g ai/ha, visual rating, scale 0 (no effect) to 100 (complete control)
[9] = preemergence, 125 g ai/ha, 0 to 100 scale, 0 is no effect, 100 is complete control
[10] = 125 g ai/ha, scale 0 (no effect) to 100 (complete control)
[11] = 125 g ai/ha, 0 to 100 scale, 0 is no effect, 100 is complete control
[12] = Preemergence, 500 g ai/ha, scale 0 to 100

CCn1nc(C(C)(C)C)cc1C(=O)Nc1ccc(C)c(C(=O)OC(C)C)c1 [Compound 100]
Ducksalad plant response rating (ducksalad): 0 | Plant response rating, Foxtail, Giant (giant foxtail; [6]): 0 | Plant response rating, Foxtail, Giant (giant foxtail; [7]): 0 | Foxtail, Giant plant response rating (giant foxtail; [8]): 0 | Plant response rating, Foxtail, Giant (giant foxtail; [9]): 0 | Plant response rating, Morningglory (morningglory; [6]): 0 | Plant response rating, Morningglory (morningglory; [7]): 0 | Morningglory plant response rating (morningglory; [10]): 0 | Plant response rating, Morningglory (morningglory; [9]): 0 | Plant response rating, Wheat (wheat): 10 | Wheat plant response rating (wheat): 10 | Plant response rating, Pigweed (pigweed; [6]): 0 | Plant response rating, Pigweed (pigweed; [7]): 60 | Pigweed plant response rating (pigweed; [10]): 0 | Plant response rating, Pigweed (pigweed; [9]): 0 | Plant response rating, Corn (corn; [6]): 0 | Plant response rating, Corn (corn; [7]): 0 | Corn plant response rating (corn; [8]): 0 | Plant response rating, Corn (corn; [9]): 0 | Plant response rating, Cocklebur (cocklebur; [6]): 0 | Plant response rating, Cocklebur (cocklebur; [7]): 0 | Cocklebur plant response rating (cocklebur; [10]): 0 | Plant response rating, Cocklebur (cocklebur; [9]): 0 | Rice plant response rating (rice [1]): 0 | Plant response rating, Blackgrass (blackgrass): 30 | Blackgrass plant response rating (blackgrass): 10 | Plant response rating, Crabgrass, Large (large crabgrass; [6]): 0 | Plant response rating, Crabgrass, Large (large crabgrass; [7]): 0 | Crabgrass, Large plant response rating (large crabgrass; [8]): 0 | Plant response rating, Crabgrass, Large (large crabgrass; [9]): 0 | Sedge, Umbrella plant response rating [2]: 0 | Plant response rating, Surinam Grass (Surinam grass; [6]): 0 | Plant response rating, Surinam Grass (Surinam grass; [7]): 20 | Surinam Grass plant response rating (Surinam grass; [10]): 0 | Plant response rating, Surinam Grass (Surinam grass; [9]): 0 | Plant response rating, Lambsquarters (lambsquarters; [6]): 0 | Plant response rating, Lambsquarters (lambsquarters; [7]): 50 | Lambsquarters plant response rating (lambsquarters; [10]): 0 | Plant response rating, Lambsquarters (lambsquarters; [9]): 0 | Plant response rating, Velvetleaf (velvetleaf; [6]): 0 | Plant response rating, Velvetleaf (velvetleaf; [7]): 0 | Velvetleaf plant response rating (velvetleaf; [10]): 0 | Plant response rating, Velvetleaf (velvetleaf; [9]): 0 | Plant response rating, Oat, Wild (wild oat): 40 | Oat, Wild plant response rating (wild oat): 20 | Plant response rating, Barnyardgrass (barnyardgrass [3]; [6]): 0 | Plant response rating, Barnyardgrass (barnyardgrass [3]; [7]): 0 | Barnyardgrass plant response rating (barnyardgrass [3]; [8]): 0 | Plant response rating, Barnyardgrass (barnyardgrass [3]; [9]): 0 | Plant response rating, Rice (rice [4]; 500 g ai/ha, visual rating 0-100, 0 no effect, 100 complete control): 0 | Plant response rating, Rice (rice [4]; [11]): 0 | Barnyardgrass plant response rating (barnyardgrass [5]): 0

CCN(CC)C(=O)c1cc(NC(=O)c2cc(C(C)(C)C)nn2CC)ccc1C [Compound 69]
Ducksalad plant response rating (ducksalad): 0 | Plant response rating, Foxtail, Giant (giant foxtail; [7]): 0 | Foxtail, Giant plant response rating (giant foxtail; [12]): 0 | Foxtail, Giant plant response rating (giant foxtail; [8]): 0 | Plant response rating, Foxtail, Giant (giant foxtail; [9]): 0 | Plant response rating, Morningglory (morningglory; [7]): 0 | Morningglory plant response rating (morningglory; [10]): 0 | Plant response rating, Morningglory (morningglory; [9]): 0 | Plant response rating, Wheat (wheat): 0 | Wheat plant response rating (wheat): 0 | Plant response rating, Pigweed (pigweed; [7]): 20 | Pigweed plant response rating (pigweed; [10]): 10 | Plant response rating, Pigweed (pigweed; [9]): 0 | Plant response rating, Corn (corn; [7]): 0 | Corn plant response rating (corn; [12]): 0 | Corn plant response rating (corn; [8]): 0 | Plant response rating, Corn (corn; [9]): 0 | Plant response rating, Cocklebur (cocklebur; [7]): 0 | Cocklebur plant response rating (cocklebur; [10]): 0 | Plant response rating, Cocklebur (cocklebur; [9]): 0 | Rice plant response rating (rice [1]): 0 | Plant response rating, Blackgrass (blackgrass): 30 | Blackgrass plant response rating (blackgrass): 10 | Plant response rating, Crabgrass, Large (large crabgrass; [7]): 0 | Crabgrass, Large plant response rating (large crabgrass; [12]): 0 | Crabgrass, Large plant response rating (large crabgrass; [8]): 0 | Plant response rating, Crabgrass, Large (large crabgrass; [9]): 0 | Sedge, Umbrella plant response rating [2]: 0 | Plant response rating, Surinam Grass (Surinam grass; [7]): 0 | Surinam Grass plant response rating (Surinam grass; [10]): 0 | Plant response rating, Surinam Grass (Surinam grass; [9]): 0 | Plant response rating, Lambsquarters (lambsquarters; [7]): 10 | Lambsquarters plant response rating (lambsquarters; [10]): 0 | Plant response rating, Lambsquarters (lambsquarters; [9]): 0 | Plant response rating, Velvetleaf (velvetleaf; [7]): 0 | Velvetleaf plant response rating (velvetleaf; [10]): 0 | Plant response rating, Velvetleaf (velvetleaf; [9]): 0 | Plant response rating, Oat, Wild (wild oat): 20 | Oat, Wild plant response rating (wild oat): 10 | Plant response rating, Barnyardgrass (barnyardgrass [3]; [7]): 0 | Barnyardgrass plant response rating (barnyardgrass [3]; [12]): 0 | Barnyardgrass plant response rating (barnyardgrass [3]; [8]): 0 | Plant response rating, Barnyardgrass (barnyardgrass [3]; [9]): 0 | Plant response rating, Rice (rice [4]; [11]): 0 | Barnyardgrass plant response rating (barnyardgrass [5]): 0
